Results from patent publication US20130338106A1, “COMPOUNDS INHIBITING LEUCINE-RICH REPEAT KINASE ENZYME ACTIVITY” (priority 2011, published 2013).

How the values were obtained:
Assay type in all cases: biochemical
Conditions in all cases: tested at 10 uM, read-out: percent inhibition of the kinase activity
[1] = target: T1, SYK (Homo sapiens, UniProt P43405); assay: ProfilerPro Kinase Selectivity, SYK
T1 construct: purchased Caliper LifeSciences
Protocol: (§1) Kinome selectivity profiling was performed using two example compounds according to the manufacturer's instructions using Caliper LifeSciences' ProfilerPro Kinase Selectivity Assay Kits. Compounds prepared in Examples 1 and 7 were tested at 10 uM and data were recorded using the Caliper LabChip® EZ Reader™. Each compounds' percent inhibition of the kinase activity measured in this manner is reported in the following lists.

[2] = target: T2, MST1R (Homo sapiens, UniProt Q04912); assay: ProfilerPro Kinase Selectivity, MST1R
T2 construct: purchased Caliper LifeSciences
Protocol: as §1

[3] = target: T3, BRSK1 (Homo sapiens, UniProt Q8TDC3); assay: ProfilerPro Kinase Selectivity, BRSK1
T3 construct: purchased Caliper LifeSciences
Protocol: as §1

[4] = target: T4, PRKCZ (Homo sapiens, UniProt Q05513); assay: ProfilerPro Kinase Selectivity, PRKCZ
T4 construct: purchased Caliper LifeSciences
Protocol: as §1

[5] = target: T5, P38G (Homo sapiens, UniProt P53778); assay: ProfilerPro Kinase Selectivity, P38G
T5 construct: purchased Caliper LifeSciences
Protocol: as §1

[6] = target: T6, AKT3 (Homo sapiens, UniProt Q9Y243); assay: ProfilerPro Kinase Selectivity, AKT3
T6 construct: purchased Caliper LifeSciences
Protocol: as §1

[7] = target: T7, MST1 (Homo sapiens, UniProt Q13043); assay: ProfilerPro Kinase Selectivity, MST1
T7 construct: purchased Caliper LifeSciences
Protocol: as §1

[8] = target: T8, FLT3 (Homo sapiens, UniProt P36888); assay: ProfilerPro Kinase Selectivity, FLT3
T8 construct: purchased Caliper LifeSciences
Protocol: as §1

[9] = target: T9, ABL1 G250E (Homo sapiens, UniProt P00519, G250E); assay: ProfilerPro Kinase Selectivity, ABL1 G250E
T9 construct: purchased Caliper LifeSciences
Protocol: as §1

[10] = target: T10, HGK (Homo sapiens, UniProt O95819); assay: ProfilerPro Kinase Selectivity, HGK
T10 construct: purchased Caliper LifeSciences
Protocol: as §1

[11] = target: T11, AURC (Homo sapiens, UniProt Q9UQB9); assay: ProfilerPro Kinase Selectivity, AURC
T11 construct: purchased Caliper LifeSciences
Protocol: as §1

[12] = target: T12, PHKG1 (Homo sapiens, UniProt Q16816); assay: ProfilerPro Kinase Selectivity, PHKG1
T12 construct: purchased Caliper LifeSciences
Protocol: as §1

[13] = target: T13, CAMK2A (Homo sapiens, UniProt Q9UQM7); assay: ProfilerPro Kinase Selectivity, CAMK2A
T13 construct: purchased Caliper LifeSciences
Protocol: as §1

[14] = target: T14, PKD3 (Homo sapiens, UniProt O94806); assay: ProfilerPro Kinase Selectivity, PKD3
T14 construct: purchased Caliper LifeSciences
Protocol: as §1

[15] = target: T15, NUAK1 (Homo sapiens, UniProt O60285); assay: ProfilerPro Kinase Selectivity, NUAK1
T15 construct: purchased Caliper LifeSciences
Protocol: as §1

[16] = target: T16, PDGFRA (Homo sapiens, UniProt P16234); assay: ProfilerPro Kinase Selectivity, PDGFRA
T16 construct: purchased Caliper LifeSciences
Protocol: as §1

[17] = target: T17, FGFR1 V561M (Homo sapiens, UniProt P11362, V561M); assay: ProfilerPro Kinase Selectivity, FGFR1 V561M
T17 construct: purchased Caliper LifeSciences
Protocol: as §1

[18] = target: T18, FGFR4 (Homo sapiens, UniProt P22455); assay: ProfilerPro Kinase Selectivity, FGFR4
T18 construct: purchased Caliper LifeSciences
Protocol: as §1

[19] = target: T19, P38B2 (Homo sapiens, UniProt Q15759); assay: ProfilerPro Kinase Selectivity, P38B2
T19 construct: purchased Caliper LifeSciences
Protocol: as §1

[20] = target: T20, CHK2 (Homo sapiens, UniProt O96017); assay: ProfilerPro Kinase Selectivity, CHK2
T20 construct: purchased Caliper LifeSciences
Protocol: as §1

[21] = target: T21, HER4 (Homo sapiens, UniProt Q15303); assay: ProfilerPro Kinase Selectivity, HER4
T21 construct: purchased Caliper LifeSciences
Protocol: as §1

[22] = target: T22, P38D (Homo sapiens, UniProt O15264); assay: ProfilerPro Kinase Selectivity, P38D
T22 construct: purchased Caliper LifeSciences
Protocol: as §1

[23] = target: T23, EPHA3 (Homo sapiens, UniProt P29320); assay: ProfilerPro Kinase Selectivity, EPHA3
T23 construct: purchased Caliper LifeSciences
Protocol: as §1

[24] = target: T24, ROCK1 (Homo sapiens, UniProt Q13464); assay: ProfilerPro Kinase Selectivity, ROCK1
T24 construct: purchased Caliper LifeSciences
Protocol: as §1

[25] = target: T25, PASK (Homo sapiens, UniProt Q96RG2); assay: ProfilerPro Kinase Selectivity, PASK
T25 construct: purchased Caliper LifeSciences
Protocol: as §1

[26] = target: T26, CK1G1 (Homo sapiens, UniProt Q9HCP0); assay: ProfilerPro Kinase Selectivity, CK1G1
T26 construct: purchased Caliper LifeSciences
Protocol: as §1

[27] = target: T27, ALK (Homo sapiens, UniProt Q9UM73); assay: ProfilerPro Kinase Selectivity, ALK
T27 construct: purchased Caliper LifeSciences
Protocol: as §1

[28] = target: T28, RET (Homo sapiens, UniProt P07949); assay: ProfilerPro Kinase Selectivity, RET
T28 construct: purchased Caliper LifeSciences
Protocol: as §1

[29] = target: T29, MAPKAPK3 (Homo sapiens, UniProt Q16644); assay: ProfilerPro Kinase Selectivity, MAPKAPK3
T29 construct: purchased Caliper LifeSciences
Protocol: as §1

[30] = target: T30, ABL H396P (Homo sapiens, UniProt P00519, H396P); assay: ProfilerPro Kinase Selectivity, ABL H396P
T30 construct: purchased Caliper LifeSciences
Protocol: as §1

[31] = target: T31, RSK1 (Homo sapiens, UniProt Q15418); assay: ProfilerPro Kinase Selectivity, RSK1
T31 construct: purchased Caliper LifeSciences
Protocol: as §1

T28 sequence (P07949 29-1114, species assumed): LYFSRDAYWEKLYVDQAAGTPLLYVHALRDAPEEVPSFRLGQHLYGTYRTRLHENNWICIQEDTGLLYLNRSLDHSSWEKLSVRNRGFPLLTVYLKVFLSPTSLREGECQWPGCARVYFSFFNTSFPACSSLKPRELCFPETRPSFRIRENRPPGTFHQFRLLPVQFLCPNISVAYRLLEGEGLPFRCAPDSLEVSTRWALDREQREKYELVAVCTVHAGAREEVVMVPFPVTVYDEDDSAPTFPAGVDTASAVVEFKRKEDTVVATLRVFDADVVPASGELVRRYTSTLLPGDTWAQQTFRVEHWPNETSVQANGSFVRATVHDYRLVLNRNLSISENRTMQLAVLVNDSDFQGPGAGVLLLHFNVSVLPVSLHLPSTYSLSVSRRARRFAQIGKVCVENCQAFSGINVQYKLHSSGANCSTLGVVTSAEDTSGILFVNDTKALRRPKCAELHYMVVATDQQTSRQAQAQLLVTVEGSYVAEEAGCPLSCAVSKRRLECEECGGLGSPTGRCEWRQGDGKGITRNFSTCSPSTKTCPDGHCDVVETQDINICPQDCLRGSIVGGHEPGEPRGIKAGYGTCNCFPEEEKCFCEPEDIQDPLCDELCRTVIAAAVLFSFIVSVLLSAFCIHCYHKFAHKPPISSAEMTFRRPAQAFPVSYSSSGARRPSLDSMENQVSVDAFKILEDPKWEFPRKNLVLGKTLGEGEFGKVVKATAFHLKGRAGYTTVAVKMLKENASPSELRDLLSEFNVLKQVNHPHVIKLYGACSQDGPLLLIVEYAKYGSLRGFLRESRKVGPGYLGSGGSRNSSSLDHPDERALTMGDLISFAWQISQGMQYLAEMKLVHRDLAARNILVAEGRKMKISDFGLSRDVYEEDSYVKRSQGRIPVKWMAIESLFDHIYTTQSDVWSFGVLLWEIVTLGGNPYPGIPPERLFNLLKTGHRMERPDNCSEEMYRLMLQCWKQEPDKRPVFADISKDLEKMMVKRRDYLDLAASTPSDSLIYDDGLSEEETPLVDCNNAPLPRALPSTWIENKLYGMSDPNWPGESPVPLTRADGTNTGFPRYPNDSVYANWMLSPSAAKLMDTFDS
T16 sequence (P16234 24-1089, species assumed): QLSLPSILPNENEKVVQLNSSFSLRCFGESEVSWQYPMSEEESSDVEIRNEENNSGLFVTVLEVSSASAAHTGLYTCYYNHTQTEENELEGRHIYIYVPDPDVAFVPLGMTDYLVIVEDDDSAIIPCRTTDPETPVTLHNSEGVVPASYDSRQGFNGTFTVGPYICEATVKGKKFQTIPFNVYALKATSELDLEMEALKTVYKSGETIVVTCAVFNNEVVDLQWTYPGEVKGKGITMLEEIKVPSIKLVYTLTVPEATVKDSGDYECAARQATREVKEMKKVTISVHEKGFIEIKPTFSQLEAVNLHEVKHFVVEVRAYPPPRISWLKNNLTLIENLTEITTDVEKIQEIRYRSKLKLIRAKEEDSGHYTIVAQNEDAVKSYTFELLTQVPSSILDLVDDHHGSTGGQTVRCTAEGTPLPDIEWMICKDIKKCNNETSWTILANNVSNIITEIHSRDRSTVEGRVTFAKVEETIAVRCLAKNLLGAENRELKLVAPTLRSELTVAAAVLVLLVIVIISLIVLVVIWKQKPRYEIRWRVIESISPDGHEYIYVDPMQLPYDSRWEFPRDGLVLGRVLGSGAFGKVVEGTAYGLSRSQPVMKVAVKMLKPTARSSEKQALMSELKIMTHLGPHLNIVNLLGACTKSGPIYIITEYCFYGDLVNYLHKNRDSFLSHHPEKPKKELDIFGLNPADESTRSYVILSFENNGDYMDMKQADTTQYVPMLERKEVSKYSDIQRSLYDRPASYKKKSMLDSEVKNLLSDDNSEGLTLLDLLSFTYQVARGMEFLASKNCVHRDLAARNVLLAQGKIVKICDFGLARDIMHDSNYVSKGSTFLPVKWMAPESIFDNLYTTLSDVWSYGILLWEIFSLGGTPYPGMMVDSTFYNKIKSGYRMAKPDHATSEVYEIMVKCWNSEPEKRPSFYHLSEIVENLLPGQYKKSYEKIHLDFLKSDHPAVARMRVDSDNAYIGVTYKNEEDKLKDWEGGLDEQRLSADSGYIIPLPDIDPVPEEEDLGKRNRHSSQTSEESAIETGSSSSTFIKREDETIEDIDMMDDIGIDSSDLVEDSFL
T5 sequence (P53778 whole entry): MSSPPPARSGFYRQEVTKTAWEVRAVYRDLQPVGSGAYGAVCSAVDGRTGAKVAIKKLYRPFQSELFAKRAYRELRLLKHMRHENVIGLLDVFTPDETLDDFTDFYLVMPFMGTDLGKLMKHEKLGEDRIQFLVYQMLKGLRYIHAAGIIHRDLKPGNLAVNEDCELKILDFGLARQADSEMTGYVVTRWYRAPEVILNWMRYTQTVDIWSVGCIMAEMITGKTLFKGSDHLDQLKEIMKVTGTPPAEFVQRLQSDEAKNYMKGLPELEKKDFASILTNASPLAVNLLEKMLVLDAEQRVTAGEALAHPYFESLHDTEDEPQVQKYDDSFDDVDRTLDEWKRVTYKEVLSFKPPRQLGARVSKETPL
T20 sequence (O96017 whole entry, species assumed): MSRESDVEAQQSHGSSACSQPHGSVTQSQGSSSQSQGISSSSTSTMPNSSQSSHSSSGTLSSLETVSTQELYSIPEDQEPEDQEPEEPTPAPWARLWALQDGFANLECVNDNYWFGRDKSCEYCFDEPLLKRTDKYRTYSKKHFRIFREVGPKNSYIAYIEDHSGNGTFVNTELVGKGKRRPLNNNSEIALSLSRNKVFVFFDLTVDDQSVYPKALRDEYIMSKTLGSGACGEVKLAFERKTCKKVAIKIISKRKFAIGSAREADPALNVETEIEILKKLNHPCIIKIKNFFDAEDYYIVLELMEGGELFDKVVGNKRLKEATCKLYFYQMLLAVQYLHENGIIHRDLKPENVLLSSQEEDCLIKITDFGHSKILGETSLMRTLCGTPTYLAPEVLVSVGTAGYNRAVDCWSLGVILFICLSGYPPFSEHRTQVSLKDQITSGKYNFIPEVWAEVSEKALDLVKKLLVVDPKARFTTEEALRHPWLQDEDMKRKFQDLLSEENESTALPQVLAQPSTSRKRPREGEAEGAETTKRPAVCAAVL
T3 sequence (Q8TDC3 whole entry, species assumed): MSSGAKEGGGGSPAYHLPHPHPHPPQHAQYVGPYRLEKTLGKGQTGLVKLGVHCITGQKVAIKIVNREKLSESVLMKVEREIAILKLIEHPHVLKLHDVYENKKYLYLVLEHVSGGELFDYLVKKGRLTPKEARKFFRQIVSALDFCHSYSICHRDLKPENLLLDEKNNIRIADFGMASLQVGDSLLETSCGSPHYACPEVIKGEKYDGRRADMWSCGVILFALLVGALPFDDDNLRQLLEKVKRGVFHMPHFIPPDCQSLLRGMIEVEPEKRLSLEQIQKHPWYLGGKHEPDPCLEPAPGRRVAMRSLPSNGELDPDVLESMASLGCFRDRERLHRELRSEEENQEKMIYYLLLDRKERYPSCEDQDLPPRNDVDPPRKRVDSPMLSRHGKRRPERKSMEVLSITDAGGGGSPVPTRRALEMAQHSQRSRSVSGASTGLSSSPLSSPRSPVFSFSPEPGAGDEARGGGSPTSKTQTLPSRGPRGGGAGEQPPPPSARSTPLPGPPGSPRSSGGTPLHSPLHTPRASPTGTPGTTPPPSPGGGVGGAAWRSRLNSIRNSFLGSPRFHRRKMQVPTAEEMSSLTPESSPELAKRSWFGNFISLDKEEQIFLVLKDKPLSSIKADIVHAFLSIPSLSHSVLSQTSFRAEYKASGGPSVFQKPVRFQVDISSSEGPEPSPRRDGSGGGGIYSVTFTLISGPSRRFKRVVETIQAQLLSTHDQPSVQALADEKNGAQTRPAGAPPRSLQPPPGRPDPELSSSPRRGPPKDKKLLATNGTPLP
T7 sequence (Q13043 whole entry): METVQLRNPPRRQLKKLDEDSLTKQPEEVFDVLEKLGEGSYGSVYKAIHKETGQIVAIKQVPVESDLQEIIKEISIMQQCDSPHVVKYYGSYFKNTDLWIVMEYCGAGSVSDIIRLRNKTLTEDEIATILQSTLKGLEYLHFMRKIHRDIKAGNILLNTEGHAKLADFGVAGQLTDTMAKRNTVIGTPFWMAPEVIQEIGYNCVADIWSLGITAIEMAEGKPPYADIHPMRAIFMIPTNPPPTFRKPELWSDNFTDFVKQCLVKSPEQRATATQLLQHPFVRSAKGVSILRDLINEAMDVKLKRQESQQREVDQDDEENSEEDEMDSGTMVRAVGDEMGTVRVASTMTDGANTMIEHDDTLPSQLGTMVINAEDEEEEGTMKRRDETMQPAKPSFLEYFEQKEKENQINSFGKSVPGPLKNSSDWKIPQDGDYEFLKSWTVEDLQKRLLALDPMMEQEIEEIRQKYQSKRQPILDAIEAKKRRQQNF
T31 sequence (Q15418 whole entry, species assumed): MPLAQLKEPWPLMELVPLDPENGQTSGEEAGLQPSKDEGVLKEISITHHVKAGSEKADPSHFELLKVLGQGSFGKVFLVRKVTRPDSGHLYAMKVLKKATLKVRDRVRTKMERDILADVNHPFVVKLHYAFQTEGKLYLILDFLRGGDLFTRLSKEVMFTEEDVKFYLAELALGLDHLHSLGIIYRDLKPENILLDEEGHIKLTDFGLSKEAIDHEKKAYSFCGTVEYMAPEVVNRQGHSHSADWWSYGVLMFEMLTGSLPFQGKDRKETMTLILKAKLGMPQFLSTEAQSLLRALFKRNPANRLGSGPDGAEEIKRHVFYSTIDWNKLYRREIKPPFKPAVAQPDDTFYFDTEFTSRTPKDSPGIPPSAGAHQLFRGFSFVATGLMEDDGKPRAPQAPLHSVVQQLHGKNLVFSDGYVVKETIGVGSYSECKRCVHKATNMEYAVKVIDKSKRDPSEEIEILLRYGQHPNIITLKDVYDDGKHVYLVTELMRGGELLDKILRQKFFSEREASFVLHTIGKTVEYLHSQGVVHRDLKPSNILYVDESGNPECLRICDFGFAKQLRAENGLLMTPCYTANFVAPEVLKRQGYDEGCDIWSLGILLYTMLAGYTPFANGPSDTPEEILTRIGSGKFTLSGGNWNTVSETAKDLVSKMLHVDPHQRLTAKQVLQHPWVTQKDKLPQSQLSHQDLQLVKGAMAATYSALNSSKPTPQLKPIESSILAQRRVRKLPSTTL

Structure (SMILES) | inhibition at 10 µM [1] [%] | inhibition at 10 µM [2] [%] | inhibition at 10 µM [3] [%] | inhibition at 10 µM [4] [%] | inhibition at 10 µM [5] [%] | inhibition at 10 µM [6] [%] | inhibition at 10 µM [7] [%] | inhibition at 10 µM [8] [%] | inhibition at 10 µM [9] [%] | inhibition at 10 µM [10] [%] | inhibition at 10 µM [11] [%] | inhibition at 10 µM [12] [%] | inhibition at 10 µM [13] [%] | inhibition at 10 µM [14] [%] | inhibition at 10 µM [15] [%] | inhibition at 10 µM [16] [%] | inhibition at 10 µM [17] [%] | inhibition at 10 µM [18] [%] | inhibition at 10 µM [19] [%] | inhibition at 10 µM [20] [%] | further results
CSc1sc(-c2cc[nH]n2)c2c1C(=O)CCC2 [Example 1, 3-(Methylsulfanyl)-1-(1H-pyrazol-3-yl)-6,7-dihydro-2-benzothiophen-4(5H)-one] | 49.9 | -1.3 | -0.2 | 0.4 | 23.3 | -2.2 | 7.2 | 11.4 | 5 | 13.8 | 27.9 | 6.3 | -4.8 | 12 | 44.2 | 15.7 | 4.4 | 5.9 | -1.3 | 48.7 | inhibition at 10 µM [21]: -2.4%; inhibition at 10 µM [22]: 4.2%; inhibition at 10 µM [23]: -2.2%; inhibition at 10 µM [24]: -3.1%; inhibition at 10 µM [25]: 2.6%; inhibition at 10 µM [26]: 6.6%; inhibition at 10 µM [27]: 23.8%; inhibition at 10 µM [28]: 24.4%; inhibition at 10 µM [29]: 0.1%; inhibition at 10 µM [30]: 10.3%; inhibition at 10 µM [31]: 9.5%
CC1(C)CC(=O)c2c(SC3CCCC3)sc(-c3cc[nH]n3)c2C1 [Example 7, 3-(Cyclopentylsulfanyl)-6,6-dimethyl-1-(1H-pyrazol-3-yl)-6,7-dihydro-2-benzothiophen-4(5H)-one] | 5.8 | -7 | 3.8 | 0.5 | -0.2 | -2.7 | -3 | 4.6 | 6.4 | 3.9 | 3.5 | 4.6 | 1.7 | 2.6 | -4.2 | -0.7 | 7.9 | -0.1 | -0.7 | 3.7 | inhibition at 10 µM [21]: -2.2%; inhibition at 10 µM [22]: -0.3%; inhibition at 10 µM [23]: -2.9%; inhibition at 10 µM [24]: 5.1%; inhibition at 10 µM [25]: -10.8%; inhibition at 10 µM [26]: 10.9%; inhibition at 10 µM [27]: 44.7%; inhibition at 10 µM [28]: 20.7%; inhibition at 10 µM [29]: -1%; inhibition at 10 µM [30]: 3.1%; inhibition at 10 µM [31]: 3.3%
